# Experimental data published in paper PMC4467398, “Preclinical antitumor activity of ST7612AA1: a new oral thiol-based histone deacetylase (HDAC) inhibitor” (Oncotarget, 2014).
# Key:
# [1] = test system: acetylation of histone H4 in NCI-H460 NSCLC cells; assay: Western blot with densitometry, histone H4 acetylation; format: cell-based, human; details: for Acetyl H4/H4: vehicle 0,0274
# Procedure: For assessing the in vitro effect of ST7612AA1 on acetylation of α-tubulin and histones, NSCLC cells were treated with the test compound at various concentrations (dose-response curve). SAHA 5 μM was used as reference inhibitor. Protein extraction, separation and immunoblotting were performed as previously described. Immunoreactive bands were finally subjected to densitometry analysis by a phosphoimaging system (STORM, Molecular Dynamics), and then the IC50 values were calculated by the “ALLFIT” computer program. The antibodies used are listed in Supplementary Table 2.
# Breast cancer MCF-7 = assay: In vitro proliferation assay; format: cell-based; details: Homo sapiens, MCF7, 72 h, mean ± S.E.M.
# Procedure: Anti-proliferative activity was first assessed on a panel of cell lines derived from solid tumors and hematological cancers and then on a large panel of cell lines derived from mature B-cell lymphomas. […] Lymphoma cells were seeded in 96-wells tissue culture plates in complete medium and were exposed to increasing concentrations of ST7612AA1 for 48 or 72 h; the anti-proliferative activity was assessed using 3-(4,5-dimethylthiazol-2-yl)-2,5-diphenyltetrazolium bromide (MTT). The drug potency was evaluated by means of the “ALLFIT” computer program and defined as IC50 (drug concentration required for 50% inhibition of cell survival).
# [2] = test system: DOHH2 and TMD8 DLBCL cells; assay: Gene Set Enrichment Analysis (GSEA) of gene expression profiles, ST7612AA1 300 nM 8 hrs; format: cell-based, human
# [3] = C2.CP.CGP, down-regulated genes
# [4] = C2.CP.KEGG, down-regulated genes
# [5] = C2.CP.REACTOME, down-regulated genes
# [6] = GSEA.C2.CP.BIOCARTA, up-regulated genes
# [7] = GSEA.C2.CP.CGP, up-regulated genes
# [8] = GSEA.C2.CP.KEGG, up-regulated genes
# [9] = GSEA.C2.CP.REACTOME, up-regulated genes
# [10] = GSEA.C3.TFT, in both sheets (down- and up-regulated)
# [11] = SignatureDB, down-regulated genes
# [12] = SignatureDB, up-regulated genes
structure (smiles),measurement,setting,value
CC(=O)SCCCCC[C@H](NC(=O)[C@H]1CCC(=O)N1)C(=O)Nc1ccccc1 [ST7612AA1],Acetyl H4/H4,"[1]; 0,2 µM, NCI-H460","0,3352"
same,Acetyl H4/H4,"[1]; 0,04 µM, NCI-H460","0,3092"
same,Acetyl H4/H4,"[1]; 1 µM, NCI-H460","0,3757"
same,IC50,"[1]; Homo sapiens, NCI-H460, 3 h exposure, Western blot densitometry, read-out: IC50 for increasing the acetylation of histone H4",0.0048 µM
same,fold more potent in increasing acetylation of histone H4 than of tubulin,[1]; NCI-H460,40 fold
same,IC50,Breast cancer MCF-7,0.19 µM
same,NES GARY_CD5_TARGETS_DN,[2]; [3],-2.075
same,NES HELLER_HDAC_TARGETS_DN,[2]; [3],-2.119
same,NES MANALO_HYPOXIA_DN,[2]; [3],-2.295
same,NES PEART_HDAC_PROLIFERATION_CLUSTER_DN,[2]; [3],-2.218
same,NES PENG_GLUTAMINE_DEPRIVATION_DN,[2]; [3],-2.059
same,NES SCHLOSSER_MYC_TARGETS_AND_SERUM_RESPONSE_DN,[2]; [3],-2.302
same,NES SCHLOSSER_MYC_TARGETS_AND_SERUM_RESPONSE_UP,[2]; [3],-2.093
same,NES SCHLOSSER_MYC_TARGETS_REPRESSED_BY_SERUM,[2]; [3],-2.287
same,NES SCHUHMACHER_MYC_TARGETS_UP,[2]; [3],-2.188
same,NES ZHONG_RESPONSE_TO_AZACITIDINE_AND_TSA_DN,[2]; [3],-2.061
same,NES KEGG_AMINOACYL_TRNA_BIOSYNTHESIS,[2]; [4],-2
same,NES KEGG_BASE_EXCISION_REPAIR,[2]; [4],-1.385
same,NES KEGG_CELL_CYCLE,[2]; [4],-1.433
same,NES KEGG_N_GLYCAN_BIOSYNTHESIS,[2]; [4],-1.4288
same,NES KEGG_ONE_CARBON_POOL_BY_FOLATE,[2]; [4],-1.545
same,NES KEGG_PROTEASOME,[2]; [4],-1.717
same,NES KEGG_PYRIMIDINE_METABOLISM,[2]; [4],-1.58
same,NES KEGG_RENIN_ANGIOTENSIN_SYSTEM,[2]; [4],-1.474
same,NES KEGG_RNA_DEGRADATION,[2]; [4],-1.656
same,NES KEGG_SPLICEOSOME,[2]; [4],-1.947
same,NES REACTOME_ASSEMBLY_OF_THE_PRE_REPLICATIVE_COMPLEX,[2]; [5],-1.875
same,NES REACTOME_DEADENYLATION_DEPENDENT_MRNA_DECAY,[2]; [5],-1.915
same,NES REACTOME_METABOLISM_OF_NON_CODING_RNA,[2]; [5],-2.068
same,NES REACTOME_METABOLISM_OF_RNA,[2]; [5],-1.941
same,NES REACTOME_MITOCHONDRIAL_PROTEIN_IMPORT,[2]; [5],-1.944
same,NES REACTOME_MRNA_PROCESSING,[2]; [5],-1.945
same,NES REACTOME_MRNA_SPLICING,[2]; [5],-2.002
same,NES REACTOME_PROCESSING_OF_CAPPED_INTRON_CONTAINING_PRE_MRNA,[2]; [5],-2.059
same,NES REACTOME_REGULATION_OF_MITOTIC_CELL_CYCLE,[2]; [5],-1.812
same,NES REACTOME_TRNA_AMINOACYLATION,[2]; [5],-1.958
same,NES BIOCARTA_ARAP_PATHWAY,[2]; [6],1.7296
same,NES BIOCARTA_CCR5_PATHWAY,[2]; [6],1.628
same,NES BIOCARTA_COMP_PATHWAY,[2]; [6],1.713
same,NES BERTUCCI_MEDULLARY_VS_DUCTAL_BREAST_CANCER_DN,[2]; [7],2.239
same,NES CHEN_LVAD_SUPPORT_OF_FAILING_HEART_UP,[2]; [7],2.236
same,NES DUTERTRE_ESTRADIOL_RESPONSE_24HR_DN,[2]; [7],2.118
same,NES GALINDO_IMMUNE_RESPONSE_TO_ENTEROTOXIN,[2]; [7],2.132
same,NES GAUSSMANN_MLL_AF4_FUSION_TARGETS_E_UP,[2]; [7],2.11
same,NES HELLER_HDAC_TARGETS_SILENCED_BY_METHYLATION_UP,[2]; [7],2.6813
same,NES HELLER_HDAC_TARGETS_UP,[2]; [7],2.622
same,NES KINSEY_TARGETS_OF_EWSR1_FLII_FUSION_DN,[2]; [7],2.138
same,NES PEART_HDAC_PROLIFERATION_CLUSTER_UP,[2]; [7],2.166
same,NES ZHONG_RESPONSE_TO_AZACITIDINE_AND_TSA_UP,[2]; [7],2.29
same,NES KEGG_ASTHMA,[2]; [8],1.8598
same,NES KEGG_AXON_GUIDANCE,[2]; [8],1.813
same,NES KEGG_CELL_ADHESION_MOLECULES_CAMS,[2]; [8],1.93
same,NES KEGG_ENDOCYTOSIS,[2]; [8],1.748
same,NES KEGG_EPITHELIAL_CELL_SIGNALING_IN_HELICOBACTER_PYLORI_INFECTION,[2]; [8],1.747
same,NES KEGG_FOCAL_ADHESION,[2]; [8],1.8042
same,NES KEGG_LEUKOCYTE_TRANSENDOTHELIAL_MIGRATION,[2]; [8],1.726
same,NES KEGG_LYSOSOME,[2]; [8],1.886
same,NES KEGG_SYSTEMIC_LUPUS_ERYTHEMATOSUS,[2]; [8],2.269
same,NES KEGG_VIBRIO_CHOLERAE_INFECTION,[2]; [8],1.733
same,NES REACTOME_AMYLOIDS,[2]; [9],2.248
same,NES REACTOME_CELL_CELL_JUNCTION_ORGANIZATION,[2]; [9],1.864
same,NES REACTOME_DEPOSITION_OF_NEW_CENPA_CONTAINING_NUCLEOSOMES_AT_THE_CENTROMERE,[2]; [9],1.861
same,NES REACTOME_MEIOSIS,[2]; [9],1.9137
same,NES REACTOME_MEIOTIC_RECOMBINATION,[2]; [9],2.082
same,NES REACTOME_MEIOTIC_SYNAPSIS,[2]; [9],1.86
same,NES REACTOME_PACKAGING_OF_TELOMERE_ENDS,[2]; [9],2.135
same,NES REACTOME_RNA_POL_I_PROMOTER_OPENING,[2]; [9],2.137
same,NES REACTOME_RNA_POL_I_TRANSCRIPTION,[2]; [9],1.892
same,NES REACTOME_TELOMERE_MAINTENANCE,[2]; [9],1.906
same,NES TTTNNANAGCYR_UNKNOWN,[2]; [10],1.939
same,NES V$CEBP_Q2,[2]; [10],1.715
same,NES V$CEBP_Q2_01,[2]; [10],1.7492
same,NES V$CREBP1_01,[2]; [10],1.784
same,NES V$E4BP4_01,[2]; [10],1.766
same,NES V$GATA_Q6,[2]; [10],1.724
same,NES V$HLF_01,[2]; [10],1.724
same,NES V$MYOGENIN_Q6,[2]; [10],1.714
same,NES V$OCT1_B,[2]; [10],1.782
same,NES […]_UNKNOWN,[2]; [10],2.04
same,NES CSR_EARLY_UP.V1_UP,"[2]; GSEA.C6, down-regulated genes",-1.379
same,NES EIF4E_UP,"[2]; GSEA.C6, down-regulated genes",-1.468
same,NES ERB2_UP.V1_DN,"[2]; GSEA.C6, down-regulated genes",-1.443
same,NES ESC_J1_UP_LATE.V1_DN,"[2]; GSEA.C6, down-regulated genes",-1.204
same,NES GCNP_SHH_UP_EARLY.V1_UP,"[2]; GSEA.C6, down-regulated genes",-1.491
same,NES GCNP_SHH_UP_LATE.V1_UP,"[2]; GSEA.C6, down-regulated genes",-1.454
same,NES MEK_UP.V1_DN,"[2]; GSEA.C6, down-regulated genes",-1.169
same,NES MYC_UP.V1_UP,"[2]; GSEA.C6, down-regulated genes",-2.19
same,NES VEGF_A_UP.V1_DN,"[2]; GSEA.C6, down-regulated genes",-1.363
same,NES BCAT.100_UP.V1_UP,"[2]; GSEA.C6, up-regulated genes",1.912
same,NES CAHOY_NEURONAL,"[2]; GSEA.C6, up-regulated genes",1.833
same,NES E2F3_UP.V1_UP,"[2]; GSEA.C6, up-regulated genes",1.833
same,NES ERB2_UP.V1_UP,"[2]; GSEA.C6, up-regulated genes",2.065
same,NES ESC_V6.5_UP_LATE.V1_UP,"[2]; GSEA.C6, up-regulated genes",1.857
same,NES MEK_UP.V1_UP,"[2]; GSEA.C6, up-regulated genes",2.011
same,NES P53_DN.V1_UP,"[2]; GSEA.C6, up-regulated genes",1.814
same,NES RAF_UP.V1_UP,"[2]; GSEA.C6, up-regulated genes",1.891
same,NES STK33_SKM_UP,"[2]; GSEA.C6, up-regulated genes",1.998
same,NES STK33_UP,"[2]; GSEA.C6, up-regulated genes",1.832
same,NES BLOOD_MODULE-3.7_UNDETERMINED,[2]; [11],-2.014
same,NES GLUTAMINE_STARVE_DOWN,[2]; [11],-2.082
same,NES HIF1ALPHA_1.5X_DOWN,[2]; [11],-2.057
same,NES MYC_CHIP_PET_EXPR_UP,[2]; [11],-2.152
same,NES MYC_OVEREXPRESSION_1.5X_UP,[2]; [11],-2.439
same,NES MYC_OVEREXPRESSION_2X_UP,[2]; [11],-2.047
same,NES MYELOMA_TACI_LOW_PLASMABLAST_GENE,[2]; [11],-1.944
same,NES NOTCH_T-ALL_UP_PALOMERO,[2]; [11],-2.039
same,NES PROLIFERATION_NODE1640,[2]; [11],-2.024
same,NES RAPAMYCIN_BJAB_DOWN,[2]; [11],-1.887
same,NES BLOOD_MODULE-1.2_PLATELETS,[2]; [12],0.6607
same,NES BLOOD_MODULE-3.2_INFLAMMATION-1,[2]; [12],0.6587
same,NES CNS_PNS_NODE1663,[2]; [12],0.6849
same,NES HIF1ALPHA_1.5X_UP,[2]; [12],0.6544
same,NES HRAS_OVEREXPRESSION_4X_UP,[2]; [12],0.6606
same,NES JAK2_DOWNREGULATED_PMBL,[2]; [12],0.6252
same,NES KRAS_UP,[2]; [12],0.6774
same,NES NORMAL_MESENCHYMAL-1_NODE1643,[2]; [12],0.6887
same,NES RETICULOCYTE_LARGE,[2]; [12],0.7092
same,NES SERUM_RESPONSE_FB_DOWN,[2]; [12],0.6176
